IC50 and melting point data for ten molecules are collected here from patent US11530226B2, “Azepane inhibitors of menin-MLL interaction” (Janssen Pharmaceutica NV, priority 2016, dated 2022).

Series [1] has as its target T1, menin / FITC-MBM1 peptide (Menin/MLL) (Homo sapiens, UniProt O00255).
T1 sequence (O00255 1-610): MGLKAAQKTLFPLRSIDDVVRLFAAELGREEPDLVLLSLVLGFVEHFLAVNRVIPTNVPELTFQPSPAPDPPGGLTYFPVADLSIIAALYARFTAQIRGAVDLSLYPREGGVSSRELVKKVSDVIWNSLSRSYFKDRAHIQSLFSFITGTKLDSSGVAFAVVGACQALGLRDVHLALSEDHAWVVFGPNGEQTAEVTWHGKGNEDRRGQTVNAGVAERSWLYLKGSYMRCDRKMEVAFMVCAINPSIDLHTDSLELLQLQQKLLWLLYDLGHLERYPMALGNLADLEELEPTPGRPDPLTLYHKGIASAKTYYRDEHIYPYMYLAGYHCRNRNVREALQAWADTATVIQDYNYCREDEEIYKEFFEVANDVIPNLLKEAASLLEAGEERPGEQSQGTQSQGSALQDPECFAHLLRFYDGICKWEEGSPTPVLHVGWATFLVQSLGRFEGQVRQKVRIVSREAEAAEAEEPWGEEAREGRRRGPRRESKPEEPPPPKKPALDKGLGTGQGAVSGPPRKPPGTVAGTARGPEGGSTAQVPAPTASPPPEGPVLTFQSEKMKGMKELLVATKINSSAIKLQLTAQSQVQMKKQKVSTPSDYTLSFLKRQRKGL
Kind of series: Menin/MLL fluorescence polarization (FP) assay. The series is classed as binding. The following applies: read-out: (1) Menin FP assay (IC50 (μM)). On the procedure:
Pharmacological Part 1) Menin/MLL Fluorescence Polarization Assay
To a non-surface binding, black 384-well microtiter plate was added 50 nL 160× test compound in DMSO and 4 μL 2× menin in assay buffer (40 mM TrisHCl, pH 7.5, 50 mM NaCl, 1 mM DTT and 0.001% Tween 20). After incubation of test compound and menin for 10 min at ambient temperature, 4 μL 2×FITC-MBM1 peptide (FITC-β-alanine-SARWRPPARPGT-NH2) in assay buffer was added, the microtiter plate centrifuged at 1000 rpm for 1 min and the assay mixtures incubated for 15 min at ambient temperature. The relative amount of menin -FITC-MBM1 complex present in an assay mixture is determined by measuring the fluorescence polarization (FP) of the FITC label with a BMG Pherastar plate reader (ex. 485 nm/em. 520 nm) at ambient temperature. The final concentrations of reagents in the binding assay are 100 nM menin, 5 nM FITC-MBM1 peptide and 0.625%>DMSO in assay buffer. Dose-response titrations of test compounds are conducted using an 11 point, three-fold serial dilution scheme, starting at 31 μM.
Compound potencies were determined by first calculating % inhibition at each compound concentration according to equation 1: % inhibition=((HC−LC)−(FPcompound−LC))/(HC−LC))*100 (Eqn 1)
Where LC and HC are the FP values of the assay in the presence or absence of a saturating concentration of a compound that competes with FITC-MBM1 for binding to menin, and FP^compound is the measured FP value in the presence of the test compound. HC and LC FP values represent an average of at least 16 replicates per plate.
Where Bottom and Top are the lower and upper asymptotes of the dose-response curve, respectively, IC50 is the concentration of compound that yields 50% inhibition of signal and h is the Hill coefficient.
A general note: Fluorescence polarisation rises when a labelled molecule tumbles more slowly, as on binding a larger partner.

Series [2] has as its target T2, terbium chelate-labeled menin / FITC-MBM1 peptide (Menin/MLL) (Homo sapiens, UniProt O00255, T541A).
T2 construct: Menin (a. a. l-610-6×his tag) was labeled with terbium cryptate as follows
T2 sequence (O00255 with tags, fused parts or gaps T541A): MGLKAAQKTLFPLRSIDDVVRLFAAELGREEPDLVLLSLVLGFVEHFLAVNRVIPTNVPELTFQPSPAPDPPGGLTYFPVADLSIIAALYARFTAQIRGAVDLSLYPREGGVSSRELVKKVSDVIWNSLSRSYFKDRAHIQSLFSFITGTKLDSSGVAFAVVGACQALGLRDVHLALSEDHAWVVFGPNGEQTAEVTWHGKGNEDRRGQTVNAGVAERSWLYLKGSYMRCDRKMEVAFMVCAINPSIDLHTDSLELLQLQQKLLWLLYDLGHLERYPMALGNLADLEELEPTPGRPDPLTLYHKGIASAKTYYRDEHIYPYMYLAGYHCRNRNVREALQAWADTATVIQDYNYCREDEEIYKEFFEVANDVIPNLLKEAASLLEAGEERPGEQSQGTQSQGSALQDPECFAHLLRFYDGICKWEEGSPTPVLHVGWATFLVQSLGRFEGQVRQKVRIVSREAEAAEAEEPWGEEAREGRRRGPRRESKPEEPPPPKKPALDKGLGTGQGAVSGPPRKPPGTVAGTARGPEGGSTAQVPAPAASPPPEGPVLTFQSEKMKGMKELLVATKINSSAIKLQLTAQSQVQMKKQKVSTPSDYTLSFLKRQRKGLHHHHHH
Kind of series: Menin/MLL homogenous time-resolved fluorescence (HTRF) assay. Type of series: binding. The following applies: read-out: (2) Menin HTRF assay (IC50 (nM)). The method in brief:
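Terbium cryptate-labeled menin (aa 1-610, 6×His), 100 pM, preincubated 5 min with compound, then 75 nM FITC-MBM1 peptide added for 15 min at ambient temperature. Buffer: 40 mM Tris pH 7.5, 50 mM NaCl, 1 mM DTT, 0.05% Pluronic F-127, 0.5% DMSO. HTRF 520/490 ratio; 11-point threefold titration from 25 μM, IC50 from % inhibition curve.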
For orientation: Time-resolved FRET reads energy transfer from a long-lived donor to a nearby acceptor.

The next series has as its system MV-4-1 1 cells (MLL-AF4). Kind of series: Proliferation assay (spheroid-like growth, 8 d, live-cell imaging), MV-4-11. Type of series: cell-based, human. The following applies: MV-4-11 cells, absolute IC50 from AUC of confluence, read-out: (3) Spheroid assay MV-4-11 (IC50 (μM)). The method in brief:
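Cells seeded in ultra-low attachment wells (1,500 MV-4-11, 300 MOLM14, 750 K562) with compound, 0.3% DMSO, grown 8 d at 37° C. Confluence imaged every four hours; AUC of confluence versus time, relative to vehicle, fitted for absolute IC50.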

The subject of a further series is MOLM14 cells (MLL-AF9). Kind of series: Proliferation assay (spheroid-like growth, 8 d, live-cell imaging), MOLM14. The following applies: Homo sapiens, MOLM-14, 192 h, absolute IC50 from AUC of confluence, read-out: (3) Spheroid assay MOLM14 (IC50 (μM)). Type of series: cell-based, human. On the procedure:
The anti-proliferative effect of menin/MLL protein/protein interaction inhibitor test compounds was assessed in human leukemia cell lines. The cell lines MV-4-1 1 and MOLM14 harbor MEL translocations and express the MEL fusion proteins MLL-AF4 and MLL-AF9, respectively, as well as the wildtype protein from the second allele. […] K562 was used as a control cell line containing two MLL wildtype alleles in order to exclude compounds that display general cytotoxic effects.
MV-4-1 1 and MOLM14 were cultured in RPMI-1640 (Sigma Aldrich) supplemented with 10% fetal bovine serum (HyClone), 2 mM L-glutamine (Sigma Aldrich) and 50 μg/ml gentamycin (Gibco). K562 were propagated in RPMI-1640 (Sigma Aldrich) supplemented with 20% fetal bovine serum (HyClone), 2 mM L-glutamine (Sigma Aldrich) and 50 μg/ml gentamycin (Gibco).
In order to assess the anti-proliferative effects, 1,500 MV-4-1 1, 300 MOLM14 or 750 K562 cells were seeded in 200 μl media per well in 96-well round bottom, ultra-low attachment plates (Costar, catalogue number 7007). Cell seeding numbers were chosen based on growth curves to ensure linear growth throughout the experiment. Test compounds were added at different concentrations and the DMSO content was normalized to 0.3%>. Cells were incubated for 8d at 37° C. and 5% C02. Spheroid like growth was monitored in real-time by live-cell imaging (IncuCyteZOOM, Essenbio, 4× objective) acquiring one image every four hours for 8d. Confluence (%) as a measure of spheroid size was determined using an integrated analysis tool.
In order to determine the cumulative effect of the test compounds over time, the area under the curve (AUC) in a plot of confluence against time was calculated. Confluence at the beginning of the experiment (t=0) was used as baseline for the AUC calculation.
Absolute IC50 values were calculated according to the following procedure: % Control=(AUC sample/AUC control)*100 AUC control=mean AUC of control values(cells without compound/DMSO as vehicle control)
A non-linear curve fit was applied using the least squares (ordinary) fit method to the plot of % control versus compound concentration. Based on this, the absolute IC50 value (half maximal inhibitory concentration of the test compound causing an anti-proliferative effect of 50% relative to the vehicle control) was calculated.

Each structure is given as a SMILES string. Where two headings read alike, the source gives them in different places.

Consider `FC(F)CN[C@@H]1CCCN(c2ncnc3sc(CC(F)(F)F)cc23)CC1` [Compound 5], for which the results for the IC50 in series [1] and in series [2] were 6.36 µM and 9530 nM, respectively.
In the same order, the values of `FC(F)CN[C@@H]1CCCN(c2ncnc3sc(CC(F)(F)F)cc23)CC1` [Compound 5a] are 6.15 µM and 8290 nM.
For the molecule `O=C(NC1CCCN(c2ncnc3sc(CC(F)(F)F)cc23)CC1)C1CC2(CC2)CN1` (stereo not shown) [Compound 10B], the IC50 is 5 µM in the series with MV-4-1 1 cells (MLL-AF4) (Homo sapiens, MV4-11, 192 h); 1320 nM in series [2]; 14.2 µM in the series with MOLM14 cells (MLL-AF9).
On to `Cc1ccc(CNC2CCCN(c3ncnc4sc(CC(F)(F)F)cc34)CC2)cc1` (stereo not shown) [Compound 16], for which the IC50 in the series on MV-4-1 1 cells (MLL-AF4) (Homo sapiens, MV4-11, 192 h) was 0.8 µM; in series [2], 21 nM; with MOLM14 cells (MLL-AF9), 4.9 µM.
For `OCc1ccccc1CNC1CCCN(c2ncnc3sc(CC(F)(F)F)cc23)CC1` (stereo not shown) [Compound 21] the same measures were 1 µM, 97 nM and 6.1 µM.
Turning to `COc1ccccc1CNC1CCCN(c2ncnc3sc(CC(F)(F)F)cc23)CC1` (stereo not shown) [Compound 22], the IC50 in the series on MV-4-1 1 cells (MLL-AF4) (Homo sapiens, MV4-11, 192 h) was determined as 2.5 µM; in series [2], 78 nM; with MOLM14 cells (MLL-AF9), 9.9 µM.
As to `Cc1cccc(CNC2CCCN(c3ncnc4sc(CC(F)(F)F)cc34)CC2)c1` (stereo not shown) [Compound 23], the IC50 with MV-4-1 1 cells (MLL-AF4) (Homo sapiens, MV4-11, 192 h) turned out to be 3.1 µM; in series [2], 150 nM; in the series with MOLM14 cells (MLL-AF9) it was 9.4 µM.
For `CC1CN(c2ncnc3sc(CC(F)(F)F)cc23)CCCC1NCc1ccccc1` (stereo not shown) [Compound 67A], the melting point stood at 164 °C. The concentration for half-maximal inhibition (IC50) in the series with MV-4-1 1 cells (MLL-AF4) (Homo sapiens, MV4-11, 192 h) was found to be 3.6 µM. The IC50 in series [2] is 396 nM.
Take `CC1CN(c2ncnc3sc(CC(F)(F)F)cc23)CCCC1NCc1ccccc1` (stereo not shown) [Compound 67B]: the melting point amounted to 180 °C. Moreover, the IC50 with MV-4-1 1 cells (MLL-AF4) turned out to be 3.7 µM. Also, the concentration for half-maximal inhibition (IC50) in series [2] amounted to 348 nM.
In the case of `CC1CCN(c2ncnc3sc(CC(F)(F)F)cc23)CCC1NCc1ccccc1` (stereo not shown) [Compound 68C], the IC50 with MV-4-1 1 cells (MLL-AF4) (Homo sapiens, MV4-11, 192 h) amounted to 4.4 µM; in series [2], 282 nM; in the series with MOLM14 cells (MLL-AF9), 7.7 µM.

As usually defined, the IC50 is the concentration needed to halve the response being measured. As usually defined, the melting point is the temperature, or range, at which the solid turns liquid.
